According to article PMC8360007, “Stereoselective Access to Antimelanoma Agents by Hybridization and Dimerization of Dihydroartemisinin and Artesunic acid” (Chemmedchem, 2021):
Read-outs that look alike come from different tables or passages of the source.

Assays:
[1] = system: metastatic melanoma cancer cell line RPMI7951; experiment: cell survival MTT assay on metastatic melanoma cancer cell line RPMI7951; assay type: cell-based; details: Homo sapiens, RPMI-7951, read-out: IC50±SD RPMI7951
Procedure: (§1) The anticancer‐activity of DHA and ART hybrids 7‐β, 12‐β, 13‐α, 14‐α, 15‐α, and 16‐α, and of DHA and ART dimers 17‐α,α, 18‐α,α, 19‐β,β, 20‐α,α, 21‐α,α and 22‐α,α, was evaluated by the cell survival MTT assay on metastatic melanoma cancer cell line RPMI7951. Artemisinin 1, DHA 2, ART 3, hybrids 5–7, dimer 8, and commercially available drug paclitaxel (Taxol) were used as reference. In addition, data were compared with experiments performed on normal human primary fibroblast cell line (C3PV). Table 1 reports the IC50 (half‐maximal inhibitory concentration) and CC50 (half‐maximal cytotoxic concentration) values of the tested compounds.
(§2) The primary human fibroblast C3PV cell line was treated according to Botta et al.[27] Metastatic melanoma cell line (RPMI7951) was grown in Eagle's Minimum Essential Medium (EMEM) containing 15 % and 10 % FBS respectively, in addition to penicillin (100 U/ml) and streptomycin (1 mg/ml). The cell lines were maintained at 37 °C in a humidified atmosphere (95 %) in the presence of 5.0 % CO2. Prostate cancer (PC3) and breast cancer (MDA‐MB‐231) cell lines were raised in DMEM/F12 and RMPI1640 medium, respectively. To the medium was added 10 % FBS, 1 mM Glutammine and 40 μg/ml of Gentamicin. All cell lines were mantained at 37 °C in a humidified atmosphere (95 %) in the presence of 5.0 of CO2.
To study the effect of artemisinin and its derivatives on cell viability C3PV, RPMI7951, PC3, MDA‐MB‐231 cell lines were seeded in 96‐well plates (6000 cells/well in 100 μl medium) and incubated overnight to allow cell adherence. After, the medium was replaced with fresh medium containing the appropriate dose of compound. Artemisinin and its derivatives were used in a range of […] for 24 h. The analyses of cell viability were done at the end of treatment. […]
(§3) The CC50 and IC50 values were determined by non‐linear regression using the program graphpad prism 6.
(§4) Cell viability was evaluated using MTT cell proliferation assay. Briefly, after incubation for 3 h at 37 °C with MTT (0.5 mg/ml) the supernatant was replaced with 100 μl of a lysis solution containing 10 % SDS, 0.6 % Acetic acid in DMSO to dissolve the formazan crystals. Optical density measurements were performed with a scanning spectrophotometer DTX880 Multimode Detector (Beckman Coulter) using a 630 nm (background) and a 570 nm filter.

[2] = MTT cell viability (cytotoxicity) on normal human primary fibroblast C3PV; assay type: cell-based; details: C3PV normal primary fibroblast cells, 24 h treatment, triplicate, read-out: CC50±SD C3PV
[3] = as above; assay type: cell-based
Procedure: as §1, §2
(§5) To study the effect of artemisinin and its derivatives on cell viability C3PV, RPMI7951, PC3, MDA‐MB‐231 cell lines were seeded in 96‐well plates (6000 cells/well in 100 μl medium) and incubated overnight to allow cell adherence. After, the medium was replaced with fresh medium containing the appropriate dose of compound. […] The analyses of cell viability were done at the end of treatment. The assays were performed in quadruplicate for both treatments.
as §3, §4

[4] = system: normal human primary fibroblast cell line (C3PV); parameters: method as in PMID 31956771; details: cytotoxicity data from ref. 12; read-out: CC50±SD C3PV; cited from earlier work
[5] = system: metastatic melanoma cancer cell line RPMI7951; parameters: method as in PMID 31956771; details: cited from earlier work
[6] = system: human prostate (PC3) cancer cell line; experiment: MTT cell viability on prostate cancer PC3 cell line; assay type: cell-based; details: PC-3, triplicate, read-out: IC50±SD PC3
Procedure: (§6) The effect of dimers 20–22‐α,α was further evaluated against other tumour types, such as human prostate and breast cancers in PC3 and MDA‐MB‐231 cell lines, respectively (Table 2).
as §2, §5, §4

[7] = system: human breast (MDA‐MB‐231) cancer cell line; experiment: MTT cell viability on breast cancer MDA‐MB‐231 cell line; assay type: cell-based; details: triplicate, read-out: IC50±SD MDA‐MB‐231
Procedure: as §6, §2, §5, §4

[8] = stability in assay medium by HPLC; assay type: physicochemical; details: 24 and 48 hours, 25 °C, pH=7, in comparison with artesunic acid 3
[9] = MTT, 24 h treatment, triplicate
[10] = antimelanoma data from ref. 12, read-out: IC50±SD RPMI7951

SMILES	IC50 [1, 9] [nM]	CC50 at 24 h [3] [nM]	other results
C[C@H]1[C@H](OC(=O)CCC(=O)O[C@@H]2O[C@@H]3O[C@@]4(C)CC[C@H]5[C@H](C)CC[C@@H]([C@H]2C)[C@@]35OO4)O[C@@H]2O[C@@]3(C)CC[C@H]4[C@H](C)CC[C@@H]1[C@@]24OO3 [17‐α,α]	70 ± 10	–	CC50 at 24 h [2]: 250 ± 30 nM
COC(=O)C(Cc1ccc(O)cc1)NC(=O)CCC(=O)O[C@@H]1O[C@@H]2O[C@@]3(C)CC[C@H]4[C@H](C)CC[C@@H]([C@H]1C)[C@@]24OO3 (stereo partly drawn) [14‐α]	1300 ± 70	6380 ± 1500	–
C[C@@H]1CC[C@H]2[C@@H](C)C(OC(=O)CCC(=O)Oc3ccc(CCO)cc3)O[C@@H]3O[C@@]4(C)CC[C@@H]1[C@]32OO4 (stereo partly drawn) [Compound 7]	–	–	CC50 [4]: 132000 ± 12600 nM; IC50 [5, 10]: 90 ± 30 nM
CC1CCC2C(C)C(OC(=O)CCC(=O)NCCc3ccc(OC(=O)CCC(=O)OC4OC5OC6(C)CCC7C(C)CCC(C4C)C57OO6)cc3)OC3OC4(C)CCC1C32OO4 (stereo not drawn) [20‐α,α]	2450 ± 50	228000 ± 1500	IC50 [6]: 2300 ± 350 nM; IC50 ([1]; in absence of DFO): 2450 ± 50 nM; IC50 [7]: 1300 ± 850 nM
CC(=O)O[C@H]1C(=O)[C@@]2(C)[C@H]([C@H](OC(=O)c3ccccc3)[C@]3(O)C[C@H](OC(=O)[C@H](O)[C@@H](NC(=O)c4ccccc4)c4ccccc4)C(C)=C1C3(C)C)[C@]1(OC(C)=O)CO[C@@H]1C[C@@H]2O [Paclitaxel, paclitaxel, reference compound]	13	78900 ± 790	–
CC1CCC2C(C)C(OC(=O)CCC(=O)OCc3ccc(OC(=O)CCC(=O)OC4OC5OC6(C)CCC7C(C)CCC(C4C)C57OO6)cc3)OC3OC4(C)CCC1C32OO4 (stereo not drawn) [Compound 22‐α,α]	50 ± 20	> 300000	stability after exposition to assay medium (HPLC) [8]: good stability; IC50 [6]: 3100 ± 190 nM; IC50 ([1]; in absence of DFO): 50 ± 20 nM; IC50 [7]: 2400 ± 950 nM
CC1CCC2C(C)C(Oc3ccc(CCO)cc3)OC3OC4(C)CCC1C32OO4 (stereo not drawn) [7‐β]	200 ± 10	1140 ± 450	–
C[C@H]1[C@H](OC(=O)CCC(=O)O)O[C@@H]2O[C@@]3(C)CC[C@H]4[C@H](C)CC[C@@H]1[C@@]24OO3 [Compound 3, artesunic acid]	1080 ± 560	–	CC50 at 24 h [2]: 1680 ± 440 nM
C[C@H]1[C@H](OC(=O)c2ccccc2C(=O)O)O[C@@H]2O[C@@]3(C)CC[C@H]4[C@H](C)CC[C@@H]1[C@@]24OO3 [16‐α]	4600 ± 30	8140 ± 850	–
CC1CCC2C(C)C(OCCc3ccc(O)cc3)OC3OC4(C)CCC1C32OO4 (stereo not drawn) [12‐β]	400 ± 30	38200 ± 2560	–
C[C@H]1[C@@H](OCCCCO[C@H]2O[C@@H]3O[C@@]4(C)CC[C@H]5[C@H](C)CC[C@@H]([C@H]2C)[C@@]35OO4)O[C@@H]2O[C@@]3(C)CC[C@H]4[C@H](C)CC[C@@H]1[C@@]24OO3 [19‐β,β]	3600 ± 950	5700 ± 790	–
C[C@H]1[C@H](OC(=O)CCC(=O)NCCc2ccc(O)cc2)O[C@@H]2O[C@@]3(C)CC[C@H]4[C@H](C)CC[C@@H]1[C@@]24OO3 [13‐α]	1700 ± 30	3390 ± 50	–
COC(=O)C(Cc1ccc(OC(=O)CCC(=O)OC2OC3OC4(C)CCC5C(C)CCC(C2C)C35OO4)cc1)NC(=O)CCC(=O)OC1OC2OC3(C)CCC4C(C)CCC(C1C)C24OO3 (stereo not drawn) [21‐α,α]	1760 ± 30	> 300000	IC50 [6]: 3040 ± 340 nM; IC50 ([1]; in absence of DFO): 1760 ± 30 nM; IC50 [7]: 3080 ± 850 nM
CC1CCC2C(C)C(OC(=O)CCC(=O)OCCc3ccc(OC(=O)CCC(=O)OC4OC5OC6(C)CCC7C(C)CCC(C4C)C57OO6)cc3)OC3OC4(C)CCC1C32OO4 (stereo not drawn) [Compound 8]	–	–	CC50 [4]: 6100 ± 3740 nM; IC50 [5, 10]: 490 ± 50 nM; IC50 ([5]; introduction, earlier library, read-out: IC50 against RPMI‐7951 cell line): 1370 ± 130 nM
C[C@@H]1CC[C@H]2[C@@H](C)C(OC(=O)CCC(=O)OCCc3ccc(O)cc3)O[C@@H]3O[C@@]4(C)CC[C@@H]1[C@]32OO4 (stereo partly drawn) [Compound 6]	–	–	CC50 [4]: > 300000 nM; IC50 [5, 10]: 8340 ± 3060 nM
C[C@H]1[C@H](OC(=O)c2ccccc2C(=O)O[C@@H]2O[C@@H]3O[C@@]4(C)CC[C@H]5[C@H](C)CC[C@@H]([C@H]2C)[C@@]35OO4)O[C@@H]2O[C@@]3(C)CC[C@H]4[C@H](C)CC[C@@H]1[C@@]24OO3 [18‐α,α]	10800 ± 1600	8000 ± 100	–
C[C@H]1[C@H](OC(=O)CCC(=O)Oc2ccc(CO)cc2)O[C@@H]2O[C@@]3(C)CC[C@H]4[C@H](C)CC[C@@H]1[C@@]24OO3 [15‐α]	2500 ± 50	55200 ± 7330	–
C[C@@H]1CC[C@H]2[C@@H](C)C(=O)O[C@@H]3O[C@@]4(C)CC[C@@H]1[C@]32OO4 [Compound 1, artemisinin]	3620 ± 990	–	CC50 at 24 h [2]: > 300000 nM
C[C@@H]1CC[C@H]2[C@@H](C)C(OCCc3ccc(O)cc3)O[C@@H]3O[C@@]4(C)CC[C@@H]1[C@]32OO4 (stereo partly drawn) [Compound 5]	–	–	CC50 [4]: 1760 ± 310 nM; IC50 [5, 10]: 330 ± 80 nM
C[C@H]1[C@@H](O)O[C@@H]2O[C@@]3(C)CC[C@H]4[C@H](C)CC[C@@H]1[C@@]24OO3 [Compound 2, dihydroartemisinin]	910 ± 450	680 ± 190	–
